Data from patent US20260285888A1, “HETEROCYCLIC COMPOUND AND USE THEREOF” (OTSUKA PHARMACEUTICAL CO., LTD., priority 2023, published 2026).

Legend:
in vitro = type: cell-based, human; conditions: human, differentiated hl-60 cells, 300 μmol/L, about 24 hours, PMA-differentiated HL-60 cells, LDH; no-treatment 0%, cell lysis buffer 100%; read-out: cytotoxicity (%) Evaluation compound results
In short: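 HL-60 cells differentiated ~72 h with 10 nM PMA, then exposed ~24 h to compound at 300 μmol/L final in RPMI with 2% FBS. LDH release in supernatant gave cytotoxicity % scaled between untreated (0%) and lysis-buffer (100%) groups; triplicate.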

[1] = Study for confirmation of conversion to brexpiprazole in a buffer (stability of the evaluation compounds); type: physicochemical; conditions: in buffer, average of duplicate; for Concentration of brexpiprazole formed: 60-minute reaction sample; for Concentration of evaluation compound decreased: decrease in 60-minute vs 0-minute reaction sample
In short: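 Compounds (final 1 μmol/L, from 100 μmol/L working solutions) incubated in buffer at 37° C. for 0 or 60 min, in duplicate, after 3 min pre-incubation of the reaction solution. Reactions stopped with acetonitrile/isopropanol (4:1) containing internal standards; compound and formed brexpiprazole quantified against 0.01–1 μmol/L calibration samples.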

Concentration of brexpiprazole formed [1] | Concentration of evaluation compound decreased [1] | SMILES | cytotoxicity at 24 h, 300 µM (in vitro)
0 nM | 180 nM | O=c1ccc2ccc(OCCCC[N+]3(COP(=O)([O-])OCCCCBr)CCN(c4cccc5sccc45)CC3)cc2[nH]1 [EX 62, (4-(benzo[b]thiophen-4-yl)-1-(4-((2-oxo-1,2-dihydroquinolin-7-yl)oxy)butyl)piperazin-1-ium-1-yl)methyl (4-bromobutyl) phosphate] | 3%
0 nM | 30 nM | O=c1ccc2ccc(OCCCC[N+]3(COP(=O)([O-])OCCCCCCCBr)CCN(c4cccc5sccc45)CC3)cc2[nH]1 [EX 64, (4-(benzo[b]thiophen-4-yl)-1-(4-((2-oxo-1,2-dihydroquinolin-7-yl)oxy)butyl)piperazin-1-ium-1-yl)methyl (7-bromoheptyl) phosphate] | 9%
0 nM | 170 nM | CSCCCOP(=O)([O-])OC[N+]1(CCCCOc2ccc3ccc(=O)[nH]c3c2)CCN(c2cccc3sccc23)CC1 [EX 66, (4-(benzo[b]thiophen-4-yl)-1-(4-((2-oxo-1,2-dihydroquinolin-7-yl)oxy)butyl)piperazin-1-ium-1-yl)methyl (3-(methylthio)propyl) phosphate] | -2%
0 nM | 0 nM | O=C(O)CCCC(=O)OCOP(=O)([O-])OC[N+]1(CCCCOc2ccc3ccc(=O)[nH]c3c2)CCN(c2cccc3sccc23)CC1 [EX 70, (4-(benzo[b]thiophen-4-yl)-1-(4-((2-oxo-1.2-dihydroquinolin-7-yl)oxy)butyl)piperazin-1-ium-1-yl)methyl (((4-carboxybutanoyl)oxy)methyl) phosphate] | -7%
0 nM | 100 nM | CC(C)(CC(=O)O)CC(=O)OCOP(=O)([O-])OC[N+]1(CCCCOc2ccc3ccc(=O)[nH]c3c2)CCN(c2cccc3sccc23)CC1 [EX 71] | -9%
0 nM | 50 nM | CC1(C)OCC(NC(=O)CCCC(=O)OCOP(=O)([O-])OC[N+]2(CCCCOc3ccc4ccc(=O)[nH]c4c3)CCN(c3cccc4sccc34)CC2)CO1 [EX 74, (4-(benzo[b]thiophen-4-yl)-1-(4-((2-oxo-1,2-dihydroquinolin-7-yl)oxy)butyl)piperazin-1-ium-1-yl)methyl (((5-((2.2-dimethyl-1,3-dioxan-5-yl)amino)-5-oxopentanoyl)oxy)methyl) phosphate] | -1%
0 nM | 110 nM | COCCOC(=O)CCCCCCCCCCC(=O)OCOP(=O)([O-])OC[N+]1(CCCCOc2ccc3ccc(=O)[nH]c3c2)CCN(c2cccc3sccc23)CC1 [EX 77, (4-(benzo[b]thiophen-4-yl)-1-(4-((2-oxo-1,2-dihydroquinolin-7-yl)oxy)butyl)piperazin-1-ium-1-yl)methyl (((12-(2-methoxyethoxy)-12-oxododecanoyl)oxy)methyl) phosphate] | 6%

More lines, now with the values behind:

SMILES | Concentration of brexpiprazole formed [1] | Concentration of evaluation compound decreased [1] | cytotoxicity at 24 h, 300 µM (in vitro)
O=c1ccc2ccc(OCCCC[N+]3(COP(=O)([O-])OCCOCC4CC4)CCN(c4cccc5sccc45)CC3)cc2[nH]1 [EX 52, (4-(benzo[b]thiophen-4-yl)-1-(4-((2-oxo-1,2-dihydroquinolin-7-yl)oxy)butyl)piperazin-1-ium-1-yl)methyl (2-(cyclopropylmethoxy)ethyl) phosphate] | 0 nM | -40 nM | -1%
COCCOCOCCCCOP(=O)([O-])OC[N+]1(CCCCOc2ccc3ccc(=O)[nH]c3c2)CCN(c2cccc3sccc23)CC1 [EX 53, (4-(benzo[b]thiophen-4-yl)-1-(4-((2-oxo-1.2-dihydroquinolin-7-yl)oxy)butyl)piperazin-1-ium-1-yl)methyl (4-((2-methoxyethoxy)methoxy)butyl) phosphate] | 0 nM | 60 nM | -3%
COCC1CCC(COP(=O)([O-])OC[N+]2(CCCCOc3ccc4ccc(=O)[nH]c4c3)CCN(c3cccc4sccc34)CC2)CC1 (stereo not drawn) [EX 54, (4-(benzo[b]thiophen-4-yl)-1-(4-((2-oxo-1,2-dihydroquinolin-7-yl)oxy)butyl)piperazin-1-ium-1-yl)methyl ((4-(methoxymethyl)cyclohexyl)methyl) phosphate] | 0 nM | 140 nM | -10%
CC1(C)OCC(COP(=O)([O-])OC[N+]2(CCCCOc3ccc4ccc(=O)[nH]c4c3)CCN(c3cccc4sccc34)CC2)CO1 [EX 55, (4-(benzo[b]thiophen-4-yl)-1-(4-((2-oxo-1,2-dihydroquinolin-7-yl)oxy)butyl)piperazin-1-ium-1-yl)methyl ((2,2-dimethyl-1,3-dioxan-5-yl)methyl) phosphate] | 0 nM | 70 nM | -7%
COCC(COC)OP(=O)([O-])OC[N+]1(CCCCOc2ccc3ccc(=O)[nH]c3c2)CCN(c2cccc3sccc23)CC1 [EX 56, (4-(benzo[b]thiophen-4-yl)-1-(4-((2-oxo-1,2-dihydroquinolin-7-yl)oxy)butyl)piperazin-1-ium-1-yl)methyl (1,3-dimethoxypropan-2-yl) phosphate] | 0 nM | 40 nM | -6%
O=C(OCCCCCCOP(=O)([O-])OC[N+]1(CCCCOc2ccc3ccc(=O)[nH]c3c2)CCN(c2cccc3sccc23)CC1)c1ccccc1 [EX 57, (4-(benzo[b]thiophen-4-yl)-1-(4-((2-oxo-1,2-dihydroquinolin-7-yl)oxy)butyl)piperazin-1-ium-1-yl)methyl (6-(benzoyloxy)hexyl) phosphate] | 0 nM | 90 nM | 4%
Cc1cccc(C(=O)OCCCCCCOP(=O)([O-])OC[N+]2(CCCCOc3ccc4ccc(=O)[nH]c4c3)CCN(c3cccc4sccc34)CC2)n1 [EX 59, (4-(benzo[b]thiophen-4-yl)-1-(4-((2-oxo-1,2-dihydroquinolin-7-yl)oxy)butyl)piperazin-1-ium-1-yl)methyl (6-((6-methylpicolinoyl)oxy)hexyl) phosphate] | 0 nM | 50 nM | 1%
CC(C)(C)[Si](C)(C)OCCCCOP(=O)([O-])OC[N+]1(CCCCOc2ccc3ccc(=O)[nH]c3c2)CCN(c2cccc3sccc23)CC1 [EX 60, (4-(benzo[b]thiophen-4-yl)-1-(4-((2-oxo-1,2-dihydroquinolin-7-yl)oxy)butyl)piperazin-1-ium-1-yl)methyl (4-((tert-butyldimethylsilyl)oxy)butyl) phosphate] | 0 nM | 90 nM | 16%
CC1(C)OCC(C(=O)OCOP(=O)([O-])OC[N+]2(CCCCOc3ccc4ccc(=O)[nH]c4c3)CCN(c3cccc4sccc34)CC2)CO1 [EX 67, (4-(benzo[b]thiophen-4-yl)-1-(4-((2-oxo-1,2-dihydroquinolin-7-yl)oxy)butyl)piperazin-1-ium-1-yl)methyl (((2,2-dimethyl-1,3-dioxane-5-carbonyl)oxy)methyl) phosphate] | 0 nM | 90 nM | 1%
CC(=O)Oc1ccccc1C(=O)OCOP(=O)([O-])OC[N+]1(CCCCOc2ccc3ccc(=O)[nH]c3c2)CCN(c2cccc3sccc23)CC1 [EX 80, (2-acetoxybenzoyl)oxy)methyl ((4-(benzo[b]thiophen-4-yl)-1-(4-((2-oxo-1,2-dihydroquinolin-7-yl)oxy)butyl)piperazin-1-ium-1-yl)methyl) phosphate] | 0 nM | 170 nM | 7%
Cc1ncccc1C(=O)OCOP(=O)([O-])OC[N+]1(CCCCOc2ccc3ccc(=O)[nH]c3c2)CCN(c2cccc3sccc23)CC1 [EX 81, (4-(benzo[b]thiophen-4-yl)-1-(4-(2-oxo-1,2-dihydroquinolin-7-yl)oxy)butyl)piperazin-1-ium-1-yl)methyl (((2-methylnicotinoyl)oxy)methyl) phosphate] | 0 nM | -30 nM | 8%
COCCn1nc(C(=O)OCOP(=O)([O-])OC[N+]2(CCCCOc3ccc4ccc(=O)[nH]c4c3)CCN(c3cccc4sccc34)CC2)c2ccccc21 [EX 82, (4-(benzo[b]thiophen-4-yl)-1-(4-((2-oxo-1.2-dihydroquinolin-7-yl)oxy)butyl)piperazin-1-ium-1-yl)methyl (((1-(2-methoxyethyl)-1H-indazole-3-carbonyl)oxy)methyl) phosphate] | 0 nM | 20 nM | -2%
